Results taken from article PMC9697349, “Mouse Pharmacokinetics and In Vitro Metabolism of SH-11037 and SH-11008, Synthetic Homoisoflavonoids for Retinal Neovascularization” (Pharmaceutics, 2022).

Assay: Mouse pharmacokinetics, single i.v. dose
Assay type: in vivo
Conditions: plasma, iv, single i.v. dose of SH-11008 3 mg/kg, male ICR mice
Method: Pharmacokinetic studies were performed with male ICR mice (8 weeks old, 30~35 g) purchased from Koatech Co. (Kyunggi, Korea) as reported previously. Test compounds were dissolved at 1 mg/mL in DMA/Tween 80/20% aqueous HPβCD (10/10/80 vol%) to prepare the dosing solutions. SH-11037 was administered by oral (p.o.) gavage at a dose of 10 mg/kg and a dose volume of 10 mL/kg (equimolar to 6 mg/kg of SH-11008) or intravenously (i.v.) via tail vein injection at a dose of 5 mg/kg and a dose volume of 5 mL/kg (equimolar to 3 mg/kg of SH-11008), respectively. SH-11008 was administered p.o. at a dose of 6 mg/kg and a dose volume of 6 mL/kg or i.v. at a dose of 3 mg/kg and a dose volume of 3 mL/kg, respectively. Plasma samples were analyzed as described below in Section 2.6.1.
Calibration standards and quality control (QC) samples were prepared by spiking 15 μL of blank plasma with 5 μL of analyte working solution prepared in 50 vol% aqueous CH3CN. For sample preparation, 15 μL aliquots of plasma samples combined with 5 μL of 50 vol% aqueous CH3CN were mixed with 3 volumes of ice-cold CH3CN containing glipizide (500 ng/mL) as the IS. The mixture was vortexed, sonicated, and centrifuged at 3000× g for 20 min. The supernatant was then mixed with the same volume of HPLC grade water before analysis. Sample analyses were conducted using Agilent 1290 Infinity HPLC system coupled to Agilent 6460 Triple Quadrupole LC-MS/MS system equipped with Jet Stream ESI ion source (Agilent Technologies Korea, Seoul, Korea). Chromatographic separation was performed on an Agilent Eclipse Plus C18 column (2.1 × 100 mm, 3.5 μm) with a Phenomenex Security Guard C18 guard column (4 × 20 mm) maintained at 40 °C. The mobile phase consisted of 0.1% formic acid in deionized water (A) and 0.1% formic acid in CH3CN (B): 0~2 min 5% B, 2~3 min to 95% B, and 3~6.5 min 95% B. Total run time including a 3 min equilibration time was 9.5 min. The flow rate was 0.45 mL/min. The injection volume was 5 µL. Detection of the analyte ions was performed in the positive multiple reaction monitoring (MRM) mode, with the following mass transitions (precursor > product): m/z 644 > 588, 397 > 367, and 446 > 321 for SH-11037, SH-11008 and IS, respectively. […] The lower limit of quantitation of SH-11037 and SH-11008 were 0.24 and 0.48 ng/mL, respectively, with a signal-to-noise ratio based on root mean square noise > 10. The calibration curves were linear in the range of 0.24–500 ng/mL (r^2 > 0.997) for SH-11037 and 0.48–500 ng/mL (r^2 > 0.998) for SH-11008, respectively. The precision and accuracy of the analytical method were evaluated with the QC samples prepared in triplicate at 5, 250, and 400 ng/mL for both of SH-11037 and SH-11008: the coefficient of variation (%CV) and the relative error (%RE) were in the ranges of −21.23~5.72% and 1.47~12.30% for SH-11037 and −22.85~4.96% and 1.2~13.8% for SH-11008, respectively. Extraction recovery, matrix effect, and process efficiency were in the ranges of 91.8~107.1%, 86.3~99.9%, and 88.8~100.8% for SH-11037 and 88.9~103.8%, 88.9~100.0%, and 80.0~97.4% for SH-11008, respectively. Quantitative analysis data were obtained with Agilent Mass Hunter Quantitative Analysis QQQ (ver. B.05.00) software.
Pharmacokinetic parameters were calculated by noncompartmental analysis of plasma concentration versus time profiles using PKSolver. The scaling factors of mice and human, half-life (t1/2), intrinsic clearance (CLint), hepatic clearance (CLH), and hepatic extraction ratio (EH) were from the in vitro studies as described previously. […] The fraction of parent drug converted to the metabolite (fm) was calculated as follows:fm (%) = (AUC(m) × CL(m))/D × MWparent/MWmetabolite × 100,(1) where D is dose of the parent drug, AUC(m) is area under the curve for the metabolite after a dose of parent drug, CL(m) is CL of metabolite, and MW is molecular weight.

COc1ccc(CC2COc3cc(OC)c(OC)c(OC)c3C2=O)cc1O (stereo not shown) [SH-11008]
Cmax: 770 ± 1160 ng/mL
Tmax: 5 min
clearance: 210 ± 17.2 mL/min/kg
half-life (n = 3, read-out: t1/2 of SH-11008): 3.5 ± 0.5 min
AUC(0-inf) (read-out: AUCinf of SH-11008 (converted)): 239 ng·h/mL
AUC(0-t) (read-out: AUClast of SH-11008 (converted)): 239 ng·h/mL
Vd (read-out: Vss): 0.5 ± 0.1 L/kg
